Measured values: PubChem BioAssay (NCI)
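Each compound was tested at five concentrations against cells in 96-well plates for 48 hours. TGI: concentration producing complete growth inhibition.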

How the values were obtained:
Assay in all cases: inhibition of tumour cell growth, NCI panel, 48 h
A549 NSCLC = system: A549 NSCLC
DU-145 prostate = system: DU-145 prostate
HL-60(TB) leukemia = system: HL-60(TB) leukemia
HOP-92 NSCLC = system: HOP-92 NSCLC
HT29 colon = system: HT29 colon
IGROV1 ovarian = system: IGROV1 ovarian
K-562 leukemia = system: K-562 leukemia
KM12 colon = system: KM12 colon
MCF7 breast = system: MCF7 breast
MDA-MB-231 breast = system: MDA-MB-231 breast
NCI-H460 lung = system: NCI-H460 lung
OVCAR-3 ovarian = system: OVCAR-3 ovarian
OVCAR-8 ovarian = system: OVCAR-8 ovarian
PC-3 prostate = system: PC-3 prostate
SF-268 CNS = system: SF-268 CNS
SF-295 CNS = system: SF-295 CNS
SF-539 CNS = system: SF-539 CNS
SK-MEL-28 melanoma = system: SK-MEL-28 melanoma
SK-OV-3 ovarian = system: SK-OV-3 ovarian
SN12C renal = system: SN12C renal

For `CC(C)(Cc1ccccc1)Cc1cc(O)ccc1O`, the TGI (A549 NSCLC) was > 100 µM, the TGI (DU-145 prostate) was > 100 µM and the TGI (HL-60(TB) leukemia) was 4.8 µM. The TGI (HOP-92 NSCLC) was 36.5 µM, the TGI (HT29 colon) was 48.5 µM and the TGI (IGROV1 ovarian) was > 100 µM. The TGI (K-562 leukemia) was 44.2 µM, the TGI (KM12 colon) was 32.1 µM and the TGI (MCF7 breast) was 86.5 µM. The TGI (MDA-MB-231 breast) was 39.2 µM, the TGI (NCI-H460 lung) was 37.4 µM and the TGI (OVCAR-3 ovarian) was 25.3 µM. For the same compound, the TGI (OVCAR-8 ovarian) was 40.7 µM, the TGI (PC-3 prostate) was > 100 µM and the TGI (SF-268 CNS) was 35.7 µM. The TGI (SF-295 CNS) was 73.5 µM, the TGI (SF-539 CNS) was 27.1 µM and the TGI (SK-MEL-28 melanoma) was 47.2 µM. The TGI (SK-OV-3 ovarian) was 71 µM and the TGI (SN12C renal) was 41.3 µM.
